In the supplement of paper PMC10307832 one finds relative viability data, which are given here for 7 cell lines.

Common to all, as to experiment: relative viability (nuclei count vs DMSO), 5 days (fraction); higher = more cells survive
Compound in assay [1]: C1CNCCC1C2=CC(=NN2)C3=CC=NC=C3 + CCNC(=O)c1noc(-c2cc(C(C)C)c(O)cc2O)c1-c1ccc(CN2CCOCC2)cc1 [Luminespib] (partner 0.01 µM)
The gist of the method: (§1)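 Values are medians from duplicate plates. Each reflects relative viability, defined as the nuclei count of treated wells over that of vehicle wells. Lung cancer cell lines in 1536-well plates were pin-tool dosed one day after seeding with one drug alone or with a fixed anchor-drug dose plus five library-drug doses (not always all listed) in √10 steps, then fixed, stained and imaged at 4× after 5 days.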

Compound in assay [2]: C[C@@H](N)c1ccc(C(=O)Nc2ccnc3[nH]ccc23)cc1 + Nc1ncn([C@H]2C[C@H](O)[C@@H](CO)O2)c(=O)n1 [Decitabine] (partner 2 µM)
In short, it runs like this: as §1

Compound in assay [3]: C[C@@H](N)c1ccc(C(=O)Nc2ccnc3[nH]ccc23)cc1 + O=C(CCCCCCC(=O)Nc1ccccc1)NO [Vorinostat] (partner 1 µM)
The gist of the method:
as §1

Compound in the assay “Tanzisertib + Bortezomib”: O[C@H]1CC[C@H](Nc2ncc3nc(Nc4c(F)cc(F)cc4F)n([C@H]4CCOC4)c3n2)CC1 [Tanzisertib] + CC(C)C[C@H](NC(=O)[C@H](Cc1ccccc1)NC(=O)c1cnccn1)B(O)O [Bortezomib] (partner 0.002 µM)
In short, it runs like this: as §1

For the cell line HCC-827, the relative viability stood at 0.571 in assay [1] (first compound 0.08 µM); 0.522 in assay [1] (first compound 0.8 µM); 0.749 in assay [1] (first compound 2.53 µM); 0.57 in assay [1] (first compound 8 µM); 0.33 in assay [2] (first compound 0.1265 µM); 0.379 in assay [2] (first compound 0.4 µM). Besides, the relative viability in assay [2] (first compound 1.265 µM) is 0.227; in assay [2] (first compound 4 µM), 0.331; in assay [3] (first compound 0.1265 µM), 0.813; in assay [3] (first compound 0.4 µM) it was 1.04; in assay [3] (first compound 1.265 µM), 0.972; in assay [3] (first compound 4 µM) it was 0.701. Moreover, the relative viability with Tanzisertib + Bortezomib (first compound 0.08 µM) is 0.952; in the assay with Tanzisertib + Bortezomib (first compound 0.253 µM) it was 1.06; with Tanzisertib + Bortezomib (first compound 0.8 µM), 1.12; in the assay with Tanzisertib + Bortezomib (first compound 2.53 µM), 1.04; with Tanzisertib + Bortezomib (first compound 8 µM), 0.701.
In the case of HOP-62, the relative viability in assay [1] (first compound 0.08 µM) came to 0.999; in assay [1] (first compound 0.8 µM), 1.06; in assay [1] (first compound 2.53 µM), 0.837; in assay [1] (first compound 8 µM) it was 0.847; in assay [2] (first compound 0.04 µM), 0.21; in assay [2] (first compound 0.1265 µM), 0.225. The relative viability in assay [2] (first compound 0.4 µM) is 0.241; in assay [2] (first compound 1.265 µM), 0.206; in assay [2] (first compound 4 µM), 0.207; in assay [3] (first compound 0.04 µM), 0.715; in assay [3] (first compound 0.1265 µM), 0.541; in assay [3] (first compound 0.4 µM) it was 0.602. Moreover, the relative viability was 0.179 in assay [3] (first compound 1.265 µM); 0.555 in assay [3] (first compound 4 µM); 0.803 with Tanzisertib + Bortezomib (first compound 0.08 µM); 0.974 in the assay with Tanzisertib + Bortezomib (first compound 0.253 µM); 1.01 with Tanzisertib + Bortezomib (first compound 0.8 µM); 0.726 in the assay with Tanzisertib + Bortezomib (first compound 2.53 µM). In addition, the relative viability with Tanzisertib + Bortezomib (first compound 8 µM) came to 0.704.
Regarding LC-2-ad, the relative viability in assay [1] (first compound 0.8 µM) was 1.13; in assay [1] (first compound 2.53 µM), 1.13; in assay [1] (first compound 8 µM) it was 0.987; in assay [2] (first compound 0.04 µM), 0.935; in assay [2] (first compound 0.1265 µM), 0.775; in assay [2] (first compound 0.4 µM), 0.827. For the same cell line, the relative viability in assay [2] (first compound 1.265 µM) was found to be 0.775; in assay [2] (first compound 4 µM), 0.563; in assay [3] (first compound 0.04 µM) it was 0.497; in assay [3] (first compound 0.1265 µM), 0.736; in assay [3] (first compound 0.4 µM), 0.713; in assay [3] (first compound 1.265 µM), 0.476. Besides, the relative viability worked out at 0.369 in assay [3] (first compound 4 µM); 1.05 with Tanzisertib + Bortezomib (first compound 0.08 µM); 1.08 with Tanzisertib + Bortezomib (first compound 0.253 µM); 1.05 in the assay with Tanzisertib + Bortezomib (first compound 0.8 µM); 1.09 with Tanzisertib + Bortezomib (first compound 2.53 µM); 1.01 in the assay with Tanzisertib + Bortezomib (first compound 8 µM).
Consider LCLC-97TM1, for which the relative viability in assay [1] (first compound 0.08 µM) worked out at 0.734; in assay [1] (first compound 0.8 µM), 0.916; in assay [1] (first compound 2.53 µM), 0.962; in assay [1] (first compound 8 µM) it was 0.713; in assay [2] (first compound 0.04 µM) it was 0.254; in assay [2] (first compound 0.1265 µM), 0.263. The relative viability was found to be 0.249 in assay [2] (first compound 0.4 µM); 0.218 in assay [2] (first compound 1.265 µM); 0.304 in assay [2] (first compound 4 µM); 0.835 in assay [3] (first compound 0.04 µM); 0.374 in assay [3] (first compound 0.1265 µM); 0.69 in assay [3] (first compound 0.4 µM). For the same cell line, the relative viability worked out at 0.0878 in assay [3] (first compound 1.265 µM); 0.779 in assay [3] (first compound 4 µM); 1.13 with Tanzisertib + Bortezomib (first compound 0.08 µM); 1.24 with Tanzisertib + Bortezomib (first compound 0.253 µM); 0.784 with Tanzisertib + Bortezomib (first compound 0.8 µM); 0.957 with Tanzisertib + Bortezomib (first compound 2.53 µM). For the same cell line, the relative viability with Tanzisertib + Bortezomib (first compound 8 µM) is 0.518.
As to LCLC-103H, the relative viability in assay [1] (first compound 0.08 µM) amounted to 1.06; in assay [1] (first compound 0.8 µM), 0.909; in assay [1] (first compound 2.53 µM), 0.982; in assay [1] (first compound 8 µM), 0.961; in assay [2] (first compound 0.04 µM), 0.652; in assay [2] (first compound 0.1265 µM) it was 0.69. The relative viability in assay [2] (first compound 0.4 µM) was determined as 0.724; in assay [2] (first compound 1.265 µM), 0.716; in assay [2] (first compound 4 µM), 0.652; in assay [3] (first compound 0.04 µM) it was 0.714; in assay [3] (first compound 0.1265 µM) it was 0.634; in assay [3] (first compound 0.4 µM) it was 0.787. Further, the relative viability was 0.466 in assay [3] (first compound 1.265 µM); 0.608 in assay [3] (first compound 4 µM); 1.15 with Tanzisertib + Bortezomib (first compound 0.08 µM); 1.06 with Tanzisertib + Bortezomib (first compound 0.253 µM); 1.04 with Tanzisertib + Bortezomib (first compound 0.8 µM); 1.18 with Tanzisertib + Bortezomib (first compound 2.53 µM). The relative viability in the assay with Tanzisertib + Bortezomib (first compound 8 µM) came out at 1.16.
Take LOU-NH91: the relative viability in assay [1] (first compound 0.08 µM) came out at 0.368; in assay [1] (first compound 0.8 µM) it was 0.339; in assay [1] (first compound 2.53 µM) it was 0.334; in assay [1] (first compound 8 µM), 0.399; in assay [2] (first compound 0.04 µM), 0.755; in assay [2] (first compound 0.1265 µM) it was 0.79. Moreover, the relative viability came out at 0.78 in assay [2] (first compound 0.4 µM); 0.69 in assay [2] (first compound 1.265 µM); 0.577 in assay [2] (first compound 4 µM); 0.754 in assay [3] (first compound 0.04 µM); 0.791 in assay [3] (first compound 0.1265 µM); 0.885 in assay [3] (first compound 0.4 µM). In addition, the relative viability was 0.625 in assay [3] (first compound 1.265 µM); 0.725 in assay [3] (first compound 4 µM); 0.49 with Tanzisertib + Bortezomib (first compound 0.08 µM); 0.516 with Tanzisertib + Bortezomib (first compound 0.253 µM); 0.493 with Tanzisertib + Bortezomib (first compound 0.8 µM); 0.502 with Tanzisertib + Bortezomib (first compound 2.53 µM). Further, in the assay with Tanzisertib + Bortezomib (first compound 8 µM), the relative viability amounted to 0.543.
LU99A: the relative viability in assay [1] (first compound 0.08 µM) came to 0.3; in assay [1] (first compound 0.8 µM), 0.235; in assay [1] (first compound 2.53 µM), 0.248; in assay [1] (first compound 8 µM) it was 0.252; in assay [2] (first compound 0.1265 µM), 1.03; in assay [2] (first compound 0.4 µM) it was 0.824. The relative viability in assay [2] (first compound 1.265 µM) was determined as 0.773; in assay [2] (first compound 4 µM), 0.598; in assay [3] (first compound 0.1265 µM), 0.529; in assay [3] (first compound 0.4 µM), 0.503; in assay [3] (first compound 1.265 µM), 0.418; in assay [3] (first compound 4 µM) it was 0.366. In addition, the relative viability in the assay with Tanzisertib + Bortezomib (first compound 0.08 µM) came out at 1.29; in the assay with Tanzisertib + Bortezomib (first compound 0.253 µM), 1.07; with Tanzisertib + Bortezomib (first compound 0.8 µM) it was 1.08; with Tanzisertib + Bortezomib (first compound 2.53 µM), 1.19; in the assay with Tanzisertib + Bortezomib (first compound 8 µM) it was 1.31.
